Measurements reported in ChEMBL document CHEMBL1139063, “Inhibitory effects of phloridzin dihydrate on the activity of mushroom (Agaricus bisporus) tyrosinase” (Bioorg Med Chem, 2007).

T1: Tyrosinase (Agaricus bisporus, UniProt O42713)
T1 sequence (O42713 whole entry): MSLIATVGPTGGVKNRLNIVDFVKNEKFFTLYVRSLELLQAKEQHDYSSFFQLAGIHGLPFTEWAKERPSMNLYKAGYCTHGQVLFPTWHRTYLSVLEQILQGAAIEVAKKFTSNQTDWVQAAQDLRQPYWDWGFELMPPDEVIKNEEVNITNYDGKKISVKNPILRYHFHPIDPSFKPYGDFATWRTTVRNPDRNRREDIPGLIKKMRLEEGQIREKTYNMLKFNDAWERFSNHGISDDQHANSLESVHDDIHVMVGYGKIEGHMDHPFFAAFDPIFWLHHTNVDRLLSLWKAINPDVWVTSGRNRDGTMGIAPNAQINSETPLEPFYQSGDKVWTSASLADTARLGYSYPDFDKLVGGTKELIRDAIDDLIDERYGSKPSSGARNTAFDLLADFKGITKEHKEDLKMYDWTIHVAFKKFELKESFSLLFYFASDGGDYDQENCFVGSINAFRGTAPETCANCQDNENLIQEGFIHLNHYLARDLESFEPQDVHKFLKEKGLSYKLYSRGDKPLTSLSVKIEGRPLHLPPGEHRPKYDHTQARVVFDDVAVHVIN

B1: Tyrosinase (Agaricus bisporus), O42713 (protein)
chain: T1 sequence (O42713 whole entry)

Tests used:
Tyrosinase = biological target: T1, Tyrosinase; test: Inhibition of diphenolase activity of mushroom tyrosinase
[1] = substrate: O=C(CCc1ccc(O)cc1)c1c(O)cc(O)cc1O[C@@H]1O[C@H](CO)[C@@H](O)[C@H](O)[C@H]1O; settings: Agaricus bisporus
Description: Activity of mushroom tyrosinase diphenolase

Molecule	IC50 (Tyrosinase) [µM]	Ki (Tyrosinase) [µM]	Km [1] [µM]
O=C(CCc1ccc(O)cc1)c1c(O)cc(O)cc1O[C@@H]1O[C@H](CO)[C@@H](O)[C@H](O)[C@H]1O	110	64.3	
B1			627
